The text below walks through data of patent EP2717057A1, “Morphine-6-glucuronide derivatives, immunogens and immunoassay” (Cisbio Bioassays, priority 2012, dated 2014).

The target of this assay is rabbit anti-M6G polyclonal antibody. Nature of the assay: Cross-reactivity of the competitive M6G-ELISA (M6G-HRP tracer, biotinylated antibody). It counts as binding. The conditions noted are these: for Kd: approximate, calculated from Figure 1, competing compound diluted in NBCS at 1, 10, 100 or 1000 nM, one site competition model, read-out: affinity constant K; for K relative to M6G (X as high as M6G): ratio of the compound's K to the K of M6G. The procedure:
The rabbit anti-M6G polyclonal antibody was biotinylated for the ELISA assay. After dialysis in buffer carbonate 100 mM pH 9, biotin-NHS dissolved in DMF was added to the antibody. After stirring for 30 min, the free biotin was removed by dialysis in PBS 11 mM pH 7.2. Aliquots of labeled antibody were frozen and stored at -20°C. Then, the biotinylated antibody was diluted at ELISA working concentration determined at 0.25µg.mL^-1 in PBS 11 mM pH 7.2 + 1% BSA, aliquoted and stored at -20°C.
96-well microplates were coated with 200 µL/well of a 10 µg.mL^-1 BSA-biotin solution in PBS and incubated for 24 h at room temperature. Then after aspiration 200 µL/well of 10 µg.mL^-1 of avidin solution in PBS were distributed and incubated for 24 h at room temperature. After washing with NaCl, Tween® 0.005%, 200 µL/well of saturation solution was added (PBS + 2% Sorbitol + 0.5% Glycine + 0.1% BSA + 0.065% NaN3) and incubated for 24 h at 4°C. After an aspiration, the microplates were dried at 20°C in a ventilated room for 12 h, packed with a dessicant and stored at 4°C.
A competitive assay format was used for the M6G-ELISA. 100 µL of biotinylated antibody were added and incubated for 2 h at room temperature under 400 rpm stirring. After incubation, the wells were emptied and 3 wash cycles with H2O + 0.05% Tween® were applied. 50 µL of calibrators, controls and samples were added in duplicate. If necessary, samples were prediluted in dilution buffer (PBS + 0.1% BSA), then 50 µL of M6G-HRP conjugate was distributed in all the wells and incubated for 2h at room temperature, under 400rpm stirring. After a final washing step, 100 µL of HRP substrate (TMB) were added, and incubated for 10 min at room temperature, under 400rpm stirring. The chromogenic reaction was stopped with 100 µL H2SO4 1 N, and the absorbance of each sample was determined at 450 nm and 620 nm (reference wavelength). The results were analyzed using GraphPad Prism Software, model one site competition.
The cross-reactivity of the assay described in example 5 with several compounds that are structurally close to M6G was evaluated. For this purpose, the assay was performed with 50 µL of samples constituted of competing compounds diluted in NBCS at the concentrations of: 1 nM, 10 nM, 100 nM or 1000 nM.

`CN1CC[C@]23c4c5ccc(O)c4O[C@H]2[C@@H](O[C@@H]2O[C@H](C(=O)O)[C@@H](O)[C@H](O)[C@H]2O)C=C[C@H]3[C@H]1C5` [M6G, Morphine-6-glucuronide]: the Kd was 0.0059 µM. `COc1ccc2c3c1O[C@H]1[C@@H](O)C=C[C@H]4[C@@H](C2)N(C)CC[C@@]341` [codeine, Codeine]: the Kd was 0.22 µM and the “K relative to M6G (X as high as M6G)” value came out at 35 X. As for `CN1CC[C@]23c4c5ccc(O[C@@H]6O[C@H](C(=O)O)[C@@H](O)[C@H](O)[C@H]6O)c4O[C@H]2[C@@H](O[C@@H]2O[C@H](C(=O)O)[C@@H](O)[C@H](O)[C@H]2O)C=C[C@H]3[C@H]1C5` [M3,6G, Morphine-3-6-diglucuronide], the Kd was 0.0034 µM. The same measure, in the same setting: next, `COc1ccc2c3c1O[C@H]1[C@@H](O)C=C[C@H]4[C@@H](C2)NCC[C@@]341` [norcodeine, Norcodeine]: above 1 µM. `CN1CC[C@]23c4c5ccc(O[C@@H]6O[C@H](C(=O)O)[C@@H](O)[C@H](O)[C@H]6O)c4O[C@H]2[C@@H](O)C=C[C@H]3[C@H]1C5` [M3G, Morphine-3-glucuronide]: the Kd is 0.67 µM and the “K relative to M6G (X as high as M6G)” value was “more than 100 X”. On to `Oc1ccc2c3c1O[C@H]1[C@@H](O)C=C[C@H]4[C@@H](C2)NCC[C@@]341` [normorphine, Normorphine], for which the Kd was above 1 µM.
